Here are results for 24 molecules from US7091202B2, “4-arylspirocycloalkyl-2-aminopyrimidine carboxamide KCNQ potassium channel modulators” (Bristol-Myers Squibb Company, priority 2004, dated 2006).

The experiment has as its target T1, hQ23 (HEK-293 cell line stably transfected with one of the members of the KCNQ family) (Homo sapiens, UniProt O43525+O43526).
T1 construct: expressed in transfected cells; host or cells: HEK-293, stably transfected
Kind of experiment: Thallium flux assay for KCNQ channel blockers (FLIPR, BTC dye). The experiment is classed as cell-based. How it is done: Thallium Flux Assay for KCNQ channel blockers. Approximately 20,000 cells/well of an HEK-293 cell line stably transfected with one of the members of the KCNQ family were plated into clear-bottom, black-walled, poly-D-lysine coated, 384 well assay plates in 20 μl/well of low chloride plating medium. Low chloride plating medium was composed of the following: sodium gluconate, 109 mM; potassium gluconate, 5.4 mM; hemi-calcium gluconate, 3.6 mM; magnesium sulfate, 0.8 mM; sodium bicarbonate, 26.2 mM; sodium phosphate monobasic, 1.2 mM; glutamine, 2 mM; glucose, 5 mM; HEPES (pH 7.3) 10 mM, 10× concentration of vitamins (Gibco/LifeTechnologies catalog #11120-052) and 1× concentration of amino acids (Gibco/LifeTechnologies catalog #11130-051).
Following overnight incubation in a 5% CO2 incubator at 37° C., the cells in the plates were loaded with 20 μl/well of a dye loading solution containing the acetomethoxy ester of the thallium-sensitive fluorescent dye BTC, BTC-AM (2 μM) and pluronic acid (0.02% w/v) in chloride free assay buffer. Chloride free assay buffer was composed of the following: sodium gluconate, 140 mM; potassium gluconate, 2.5 mM; hemi-calcium gluconate, 6 mM; hemi-magnesium gluconate, 2 mM; glucose, 5 mM; HEPES (pH 7.3), 10 mM.
Following incubation in the dye loading solution for from 45–90 min at room temperature, the dye loading solution was removed by aspiration and replaced with 40 μl/well of chloride free assay buffer.
Prior to addition to cell plates, test compound and standard compounds were dissolved in DMSO to 3 mM concentration. Compounds were then diluted from the 3 mM stock to 100-fold over the final assay concentration in DMSO. Finally, compounds in DMSO were diluted from 100-fold over the final assay concentration to 5-fold over the final assay concentration in chloride free assay buffer.
Ten μl/well of compounds at 5-fold over the final assay concentration were then added to the cell plates. This represents a 1:5 dilution, yielding the final test concentration. The wells used for test compounds were A1–P20. Wells A21–P22 contained a standard ‘blocker’ and a fully efficacious concentration (positive control). Wells A23–P24 contained chloride free assay buffer containing 1% DMSO (negative control).
Following addition of test compounds, the plates were loaded onto the Molecular Devices FLIPR. The 488 nm line of the argon laser was used to excite the BTC and the emission filter was a 540(+/−30) nm. Images were collected at 1 Hz. Ten seconds of baseline were collected and then the FLIPR was used to add 13 μl/well of a stimulus buffer composed of Tl2SO4, 25 mM; sodium gluconate, 30 mM; potassium sulfate, 50 mM; hemi-calcium gluconate, 6 mM; hemi-magnesium gluconate, 2 mM; glucose, 5 mM; HEPES (pH 7.3), 10 mM in chloride free assay buffer. Images were collected for an additional 60 seconds.
For data analysis, the amplitude of the average of the negative controls was subtracted from all wells. The amplitudes of the test compounds were then compared to the value of four standard deviations of the negative control wells. The lowest concentration of a test compound sufficient to generate a signal amplitude greater than or equal to four standard deviations from the amplitude of the negative controls was defined as the minimal active concentration.
For generating IC50 values, compounds were serially diluted in 1:3 volume increments to produce a 10 point concentration series. IC50 values were calculated by fitting the resulting amplitudes to a single-site logistic equation. IC50 was defined as the concentration of test compound required to yield 50% of the response of the positive control.

[1] abbreviates: hQ23 cells, thallium flux assay.
[2] abbreviates: Table 2, thallium flux, HEK-293.
Where [3] appears, read: Table 3, thallium flux, HEK-293.

T1 sequence (O43526 whole entry): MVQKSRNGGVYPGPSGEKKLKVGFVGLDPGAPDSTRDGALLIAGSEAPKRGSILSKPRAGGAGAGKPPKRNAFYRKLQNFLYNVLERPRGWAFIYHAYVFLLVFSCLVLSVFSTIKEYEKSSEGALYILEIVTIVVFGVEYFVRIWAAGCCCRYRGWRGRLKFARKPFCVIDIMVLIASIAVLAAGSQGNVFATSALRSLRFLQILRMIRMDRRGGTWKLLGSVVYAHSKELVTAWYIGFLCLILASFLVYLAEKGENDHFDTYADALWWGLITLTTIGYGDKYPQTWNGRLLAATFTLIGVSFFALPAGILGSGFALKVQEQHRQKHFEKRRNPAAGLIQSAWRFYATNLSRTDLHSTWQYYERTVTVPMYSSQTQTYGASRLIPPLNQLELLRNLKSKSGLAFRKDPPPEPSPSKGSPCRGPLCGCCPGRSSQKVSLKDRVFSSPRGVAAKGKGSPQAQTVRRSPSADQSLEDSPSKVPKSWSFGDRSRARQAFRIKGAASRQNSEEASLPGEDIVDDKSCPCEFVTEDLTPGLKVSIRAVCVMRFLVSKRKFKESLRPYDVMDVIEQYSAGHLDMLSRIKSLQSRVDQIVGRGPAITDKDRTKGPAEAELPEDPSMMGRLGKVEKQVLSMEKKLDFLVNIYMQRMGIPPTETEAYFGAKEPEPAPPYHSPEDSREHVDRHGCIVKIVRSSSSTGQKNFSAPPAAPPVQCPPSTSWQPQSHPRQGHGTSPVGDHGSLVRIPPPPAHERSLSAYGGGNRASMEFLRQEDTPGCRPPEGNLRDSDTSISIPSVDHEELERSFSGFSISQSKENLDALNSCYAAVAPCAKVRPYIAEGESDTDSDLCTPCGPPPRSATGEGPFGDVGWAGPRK
T1 sequence (O43525 whole entry): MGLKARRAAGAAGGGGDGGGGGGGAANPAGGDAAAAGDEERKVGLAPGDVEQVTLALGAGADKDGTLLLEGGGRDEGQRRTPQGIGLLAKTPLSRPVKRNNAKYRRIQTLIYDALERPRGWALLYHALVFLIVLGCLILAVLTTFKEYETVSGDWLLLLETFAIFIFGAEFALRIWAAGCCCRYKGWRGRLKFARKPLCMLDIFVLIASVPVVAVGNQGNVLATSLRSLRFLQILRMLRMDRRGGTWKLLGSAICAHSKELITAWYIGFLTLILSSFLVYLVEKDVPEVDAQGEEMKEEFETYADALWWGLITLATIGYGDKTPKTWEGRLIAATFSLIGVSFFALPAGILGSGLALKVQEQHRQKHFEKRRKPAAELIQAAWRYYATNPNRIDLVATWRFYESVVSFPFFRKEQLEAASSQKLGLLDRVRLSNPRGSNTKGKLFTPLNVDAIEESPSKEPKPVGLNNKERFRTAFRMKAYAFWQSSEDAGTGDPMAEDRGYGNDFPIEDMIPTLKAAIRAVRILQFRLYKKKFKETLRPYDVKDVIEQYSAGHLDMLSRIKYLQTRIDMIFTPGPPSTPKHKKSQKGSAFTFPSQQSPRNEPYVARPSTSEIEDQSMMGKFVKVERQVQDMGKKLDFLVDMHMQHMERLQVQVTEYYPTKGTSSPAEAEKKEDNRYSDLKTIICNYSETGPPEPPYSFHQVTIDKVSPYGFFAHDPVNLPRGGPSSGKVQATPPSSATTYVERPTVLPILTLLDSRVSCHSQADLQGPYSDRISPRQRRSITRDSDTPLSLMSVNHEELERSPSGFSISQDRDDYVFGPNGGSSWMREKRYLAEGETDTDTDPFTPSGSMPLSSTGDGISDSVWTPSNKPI

In general, EC50 refers to the concentration that produces a half-maximal response. Lower therefore signals an effect from little substance. For `CC1CCC(Nc2ncc(C(=O)NCc3cc(F)cc(C(F)(F)F)c3)c(C3(c4ccc(F)cc4)CCCC3)n2)CC1` (stereo not drawn) [Example 274, 5-pyrimidinecarboxamide, 4-[1-(4-fluorophenyl)cyclopentyl]-N-[[3-fluoro-5-(trifluoromethyl)phenyl]methyl]-2-[(4-methylcyclohexyl)amino]-], the EC50 under setting [1] turned out to be 29 nM.

Where the note is “hQ23 cells, thallium flux”, `CC(NC(=O)c1cnc(NC2CCCC2)nc1C1(c2ccc(Cl)cc2)CCCC1)c1ccc(F)cc1` (stereo not drawn) [Example 201, 5-pyrimidinecarboxamide, 4-[1-(4-chlorophenyl)cyclopentyl]-2-(cyclopentylamino)-N-[1-(4-fluorophenyl)ethyl]-] gave an EC50 of 592 nM.

In turn, `CCN(C(=O)c1cnc(N2CCN(C)CC2)nc1C1(c2ccccc2)CC1)C1CCCCC1` [Example 27, 5-pyrimidinecarboxamide, N-cyclohexyl-N-ethyl-2-(4-methyl-1-piperazinyl)-4-(1-phenylcyclopropyl)-] yielded an EC50 under setting [2] of 470 nM. This lies in the sub-micromolar range.

Consider `CC1CCN(c2ncc(C(=O)NCc3cc(F)cc(C(F)(F)F)c3)c(C3(c4ccc(Cl)cc4)CCC3)n2)CC1` [Example 67, 5-pyrimidinecarboxamide, 4-[1-(4-chlorophenyl)cyclobutyl]-N-[[3-fluoro-5-(trifluoromethyl)phenyl]methyl]-2-(4-methyl-1-piperidinyl)-], for which, under setting [3], the midpoint of the response, the EC50, lay at 10 nM.

Take `CN1CCN(c2ncc(C(=O)NCc3cc(F)cc(C(F)(F)F)c3)c(C3(c4ccccc4)CC3)n2)CC1` [Example 46, 5-pyrimidinecarboxamide, N-[[3-fluoro-5-(trifluoromethyl)phenyl]methyl]-2-(4-methyl-1-piperazinyl)-4-(1-phenylcyclopropyl)-]: under setting [2], the EC50 was found to be 384 nM.

Under setting [1], `CN1CCC(N(C)c2ncc(C(=O)NCc3ccc(F)cc3F)c(C3(c4ccc(F)cc4)CCCC3)n2)CC1` [Example 271, 5-pyrimidinecarboxamide, N-[(2,4-difluorophenyl)methyl]-4-[1-(4-fluorophenyl)cyclopentyl]-2-[methyl(1-methyl-4-piperidinyl)amino]-] returned an EC50 of 532 nM. That is a sub-micromolar value.

Consider `CCN(CC)C(=O)c1cnc(NC2CCC(C)CC2)nc1C1(c2ccccc2)CCCC1` (stereo not drawn) [Example 72, 5-pyrimidinecarboxamide,N,N-diethyl-2-[(4-methylcyclohexyl)amino]-4-(1-phenylcyclopentyl)-], for which the EC50 (hQ23 cells, thallium flux) was found to be 576 nM. This counts as sub-micromolar.

In turn, `CC1CCN(c2ncc(C(=O)N3CCc4ccccc4C3)c(C3(c4ccc(F)cc4)CCCC3)n2)CC1` [Example 212, isoquinoline, 2-[[4-[1-(4-fluorophenyl)cyclopentyl]-2-(4-methyl-1-piperidinyl)-5-pyrimidinyl]carbonyl]-1,2,3,4-tetrahydro-] yielded an EC50 (hQ23 cells, thallium flux) of 237 nM.

`CCC(C)Nc1ncc(C(=O)N(C)CCc2ccccc2)c(C2(c3ccc(F)cc3)CCCC2)n1` (stereo not drawn) [Example 223, 5-pyrimidinecarboxamide, 4-[1-(4-fluorophenyl)cyclopentyl]-N-methyl-2-[(1-methylpropyl)amino]-N-(2-phenylethyl)-] returned an EC50 (hQ23 cells, thallium flux) of 675 nM. Against the preceding molecule, the EC50 is about 2.8-fold higher.

The molecule `CC1CCC(Nc2ncc(C(=O)NC(C)c3ccc(F)cc3)c(C3(c4ccccc4)CCCC3)n2)CC1` (stereo not drawn) [Example 131, 5-pyrimidinecarboxamide, N-[1-(4-fluorophenyl)ethyl]-2-[(4-methylcyclohexyl)amino]-4-(1-phenylcyclopentyl)-] displayed an EC50 (hQ23 cells, thallium flux) of 158 nM.

Where the note is “hQ23 cells, thallium flux”, `CC1CCC(Nc2ncc(C(=O)N(C)CCc3ccccc3)c(C3(c4ccc(F)cc4)CCCC3)n2)CC1` (stereo not drawn) [Example 219, 5-pyrimidinecarboxamide, 4-[1-(4-fluorophenyl)cyclopentyl]-N-methyl-2-[(4-methylcyclohexyl)amino]-N-(2-phenylethyl)-] had an EC50 of 334 nM.

Consider `CC(NC(=O)c1cnc(N2CCCC2)nc1C1(c2ccccc2)CCCC1)c1ccc(F)cc1` (stereo not drawn) [Example 132, 5-pyrimidinecarboxamide, N-[1-(4-fluorophenyl)ethyl]-4-(1-phenylcyclopentyl)-2-(1-pyrrolidinyl)-], for which the EC50 (hQ23 cells, thallium flux) stood at 195 nM.

As for `CC1CCCN(c2ncc(C(=O)NCc3cccc4ccccc34)c(C3(c4ccc(F)cc4)CCCC3)n2)C1` (stereo not drawn) [Example 250, 5-pyrimidinecarboxamide, 4-[1-(4-fluorophenyl)cyclopentyl]-2-(3-methyl-1-piperidinyl)-N-(1-naphthalenylmethyl)-], the response under setting [1] was half-maximal at 10 nM (EC50).

Molecule `CC1CCN(c2ncc(C(=O)N(C)Cc3ccccc3)c(C3(c4ccc(Cl)cc4)CCCC3)n2)CC1` [Example 140, 5-pyrimidinecarboxamide, 4-[1-(4-chlorophenyl)cyclopentyl]-N-methyl-2-(4-methyl-1-piperidinyl)-N-(phenylmethyl)-] yielded an EC50 (hQ23 cells, thallium flux) of 246 nM.

Molecule `CC1CCN(c2ncc(C(=O)N3CCCC(C)C3)c(C3(c4ccccc4)CCCC3)n2)CC1` (stereo not drawn) [Example 78, piperidine, 3-methyl-1-[[2-(4-methyl-1-piperidinyl)-4-(1-phenylcyclopentyl)-5-pyrimidinyl]carbonyl]-] came in with an EC50 (hQ23 cells, thallium flux) of 775 nM.

Turning to `CN1CCN(c2ncc(C(=O)NCc3ccc4c(c3)OCO4)c(C3(c4ccc(Cl)cc4)CCC3)n2)CC1` [Example 57, 5-pyrimidinecarboxamide, N-(1,3-benzodioxol-5-ylmethyl)-4-[1-(4-chlorophenyl)cyclobutyl]-2-(4-methyl-1-piperazinyl)-], the EC50 under setting [3] turned out to be 745 nM.

Regarding `CC1CCCN(c2ncc(C(=O)NC(C)c3cccc4ccccc34)c(C3(c4ccc(Cl)cc4)CCCC3)n2)C1` (stereo not drawn) [Example 160, 5-pyrimidinecarboxamide, 4-[1-(4-chlorophenyl)cyclopentyl]-2-(3-methyl-1-piperidinyl)-N-[1-(1-naphthalenyl)ethyl]-], the EC50 (hQ23 cells, thallium flux) was determined as 30 nM.

The molecule `O=C(NCc1ccc2c(c1)OCO2)c1cnc(N2CCCC2)nc1C1(c2ccc(Cl)cc2)CCC1` [Example 56, 5-pyrimidinecarboxamide, N-(1,3-benzodioxol-5-ylmethyl)-4-[1-(4-chlorophenyl)cyclobutyl]-2-(1-pyrrolidinyl)-] registered an EC50 under setting [3] of 719 nM. This lies in the sub-micromolar range.

In turn, `O=C(NCc1cc(F)cc(C(F)(F)F)c1)c1cnc(NC2CCCC2)nc1C1(c2ccccc2)CCCC1` [Example 130, 5-pyrimidinecarboxamide, 2-(cyclopentylamino)-N-[[3-fluoro-5-(trifluoromethyl)phenyl]methyl]-4-(1-phenylcyclopentyl)-] came in with an EC50 (hQ23 cells, thallium flux) of 875 nM. This lies in the sub-micromolar range.

In turn, `O=C(NCc1ccc(Cl)cc1Cl)c1cnc(NC2CC2)nc1C1(c2ccc(Cl)cc2)CCCC1` [Example 176, 5-pyrimidinecarboxamide, 4-[1-(4-chlorophenyl)cyclopentyl]-2-(cyclopropylamino)-N-[(2,4-dichlorophenyl)methyl]-] registered an EC50 (hQ23 cells, thallium flux) of 196 nM.

In the case of `CC1CCN(c2ncc(C(=O)N(C)C3CCCCC3)c(C3(c4ccc(F)cc4)CCCC3)n2)CC1` [Example 208, 5-pyrimidinecarboxamide, N-cyclohexyl-4-[1-(4-fluorophenyl)cyclopentyl]-N-methyl-2-(4-methyl-1-piperidinyl)-], it took 558 nM to reach a half-maximal effect (hQ23 cells, thallium flux) (EC50). Compared with the last molecule, the EC50 is about 2.8-fold higher.

For `O=C(NCc1cccc2ccccc12)c1cnc(NC2CCCC2)nc1C1(c2ccc(F)cc2)CCCC1` [Example 253, 5-pyrimidinecarboxamide, 2-(cyclopentylamino)-4-[1-(4-fluorophenyl)cyclopentyl]-N-(1-naphthalenylmethyl)-], the concentration for a half-maximal effect (EC50) under setting [1] was found to be 183 nM. That is a sub-micromolar value.

Turning to `CC1CCN(c2ncc(C(=O)NC(C)c3cccc4ccccc34)c(C3(c4ccc(Cl)cc4)CCCC3)n2)CC1` (stereo not drawn) [Example 161, 5-pyrimidinecarboxamide, 4-[1-(4-chlorophenyl)cyclopentyl]-2-(4-methyl-1-piperidinyl)-N-[1-(1-naphthalenyl)ethyl]-], for the setting “hQ23 cells, thallium flux”, the EC50 is 10 nM.

Molecule `CC1CCN(c2ncc(C(=O)N3CCCCC3)c(C3(c4ccccc4)CCCC3)n2)CC1` [Example 77, piperidine, 1-[[2-(4-methyl-1-piperidinyl)-4-(1-phenylcyclopentyl)-5-pyrimidinyl]carbonyl]-] registered an EC50 (hQ23 cells, thallium flux) of 164 nM.
